Values joined by “and” are separate entries in the source; they are usually repeats but may differ in a detail not shown here. Identical values can stand only once. Inconclusive results and toxic doses are left out.
Test system: CD2F1 mice, L1210 leukemia ip, survival T/C
Assay: NCI In Vivo Anticancer Drug Screen. Data for tumor model L1210 Leukemia (intraperitoneal) in CD2F1 (CDF1) mice
Settings: higher = longer survival
Method in brief: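 In this screen, transplantable tumors were grown in mice given either the compound or its vehicle. Results were expressed as the treated measurement relative to the control measurement.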

In the case of CO[C@@]12[C@H](COC(N)=O)C3=C(C(=O)C(C)=C(N)C3=O)N1C[C@@H]1N[C@@H]12, the T/C (endpoint: mean survival time, dose: 0.25 mg/kg/injection, schedule: Q01DX009 (ip), vehicle: saline) is reported as 118 % of control and 121 % of control, the T/C (endpoint: mean survival time, dose: 0.38 mg/kg/injection, schedule: Q01DX009 (ip), vehicle: water) is reported as 103 % of control and the T/C (endpoint: mean survival time, dose: 0.4 mg/kg/injection, schedule: Q04DX003 (ip), vehicle: water) is reported as 111 % of control. For the same compound, the T/C (endpoint: mean survival time, dose: 0.45 mg/kg/injection, schedule: Q01DX007 (ip), vehicle: acetone) was 117 % of control, the T/C (endpoint: mean survival time, dose: 0.5 mg/kg/injection, schedule: Q01DX009 (ip), vehicle: water) was 113 % of control and the T/C (endpoint: mean survival time, dose: 0.6 mg/kg/injection, schedule: Q01DX001 (ip), vehicle: carboxymethylcellulose (CMC)) was 111 % of control. The T/C (endpoint: mean survival time, dose: 0.65 mg/kg/injection, schedule: Q04DX003 (ip), vehicle: water) was 111 % of control, the T/C (endpoint: mean survival time, dose: 0.68 mg/kg/injection, schedule: Q01DX007 (ip), vehicle: acetone) was 121 % of control and the T/C (endpoint: mean survival time, dose: 0.68 mg/kg/injection, schedule: Q03DX004 (ip), vehicle: acetone) was 119 % of control. The T/C (endpoint: mean survival time, dose: 0.75 mg/kg/injection, schedule: Q01DX005 (ip), vehicle: clinical formulation) was 120 % of control, the T/C (endpoint: mean survival time, dose: 0.75 mg/kg/injection, schedule: Q01DX009 (ip), vehicle: water) was 104 % of control and the T/C (endpoint: mean survival time, dose: 0.87 mg/kg/injection, schedule: Q01DX001 (ip), vehicle: acetone) was 110 % of control. The T/C (endpoint: mean survival time, dose: 1.0 mg/kg/injection, schedule: Q01DX009 (ip), vehicle: water) was 115 % of control, the T/C (endpoint: mean survival time, dose: 1.0 mg/kg/injection, schedule: Q04DX003 (ip), vehicle: saline) was 116 % of control and the T/C (endpoint: mean survival time, dose: 1.1 mg/kg/injection, schedule: Q04DX003 (ip), vehicle: water) was 119 % of control. For the same compound, the T/C (endpoint: mean survival time, dose: 1.2 mg/kg/injection, schedule: Q01DX001 (ip), vehicle: carboxymethylcellulose (CMC)) was 116 % of control, the T/C (endpoint: mean survival time, dose: 1.5 mg/kg/injection, schedule: Q01DX001 (ip), vehicle: saline) was 105 % of control and the T/C (endpoint: mean survival time, dose: 1.5 mg/kg/injection, schedule: Q01DX005 (ip), vehicle: clinical formulation) was 151 % of control. For the same compound, the T/C (endpoint: mean survival time, dose: 1.55 mg/kg/injection, schedule: Q02DX005 (ip), vehicle: saline) was 119 % of control, the T/C (endpoint: mean survival time, dose: 1.55 mg/kg/injection, schedule: Q03DX004 (ip), vehicle: saline) was 116 % of control and the T/C (endpoint: mean survival time, dose: 1.55 mg/kg/injection, schedule: Q04DX003 (ip), vehicle: saline) was 114 % of control. The T/C (endpoint: mean survival time, dose: 1.55 mg/kg/injection, schedule: Q08DX002 (ip), vehicle: saline) was 104 % of control, the T/C (endpoint: mean survival time, dose: 1.75 mg/kg/injection, schedule: Q01DX001 (ip), vehicle: carboxymethylcellulose (CMC)) was 110 % of control and the T/C (endpoint: mean survival time, dose: 1.75 mg/kg/injection, schedule: Q01DX001 (ip), vehicle: saline) was 120 % of control. For the same compound, the T/C (endpoint: mean survival time, dose: 2.0 mg/kg/injection, schedule: Q01DX009 (ip), vehicle: water) was 107 % of control, the T/C (endpoint: mean survival time, dose: 2.0 mg/kg/injection, schedule: Q04DX003 (ip), vehicle: saline) was 119 % of control and the T/C (endpoint: mean survival time, dose: 2.3 mg/kg/injection, schedule: Q01DX001 (ip), vehicle: acetone) was 150 % of control. The T/C (endpoint: mean survival time, dose: 2.3 mg/kg/injection, schedule: Q01DX001 (ip), vehicle: carboxymethylcellulose (CMC)) was 118 % of control and 111 % of control, the T/C (endpoint: mean survival time, dose: 2.33 mg/kg/injection, schedule: Q02DX005 (ip), vehicle: saline) was 119 % of control and the T/C (endpoint: mean survival time, dose: 2.33 mg/kg/injection, schedule: Q03DX004 (ip), vehicle: saline) was 123 % of control. For the same compound, the T/C (endpoint: mean survival time, dose: 2.33 mg/kg/injection, schedule: Q04DX003 (ip), vehicle: saline) was 121 % of control, the T/C (endpoint: mean survival time, dose: 2.33 mg/kg/injection, schedule: Q08DX002 (ip), vehicle: saline) was 111 % of control and the T/C (endpoint: mean survival time, dose: 2.9 mg/kg/injection, schedule: Q01DX001 (ip), vehicle: saline) was 124 % of control. For the same compound, the T/C (endpoint: mean survival time, dose: 3.0 mg/kg/injection, schedule: Q01DX001 (ip), vehicle: saline) was 124 % of control, the T/C (endpoint: mean survival time, dose: 3.0 mg/kg/injection, schedule: Q01DX005 (ip), vehicle: clinical formulation) was 113 % of control and 98 % of control and the T/C (endpoint: mean survival time, dose: 3.0 mg/kg/injection, schedule: Q01DX009 (ip), vehicle: water) was 101 % of control and 108 % of control. For the same compound, the T/C (endpoint: mean survival time, dose: 3.0 mg/kg/injection, schedule: Q04DX003 (ip), vehicle: saline) was 170 % of control, the T/C (endpoint: mean survival time, dose: 3.5 mg/kg/injection, schedule: Q01DX001 (ip), vehicle: acetone) was 156 % of control and the T/C (endpoint: mean survival time, dose: 3.5 mg/kg/injection, schedule: Q01DX001 (ip), vehicle: carboxymethylcellulose (CMC)) was 155 % of control. For the same compound, the T/C (endpoint: mean survival time, dose: 3.5 mg/kg/injection, schedule: Q04DX003 (ip), vehicle: saline) was 123 % of control, the T/C (endpoint: mean survival time, dose: 3.5 mg/kg/injection, schedule: Q08DX002 (ip), vehicle: saline) was 121 % of control and the T/C (endpoint: mean survival time, dose: 4.5 mg/kg/injection, schedule: Q01DX001 (ip), vehicle: saline) was 108 % of control. For the same compound, the T/C (endpoint: mean survival time, dose: 4.7 mg/kg/injection, schedule: Q01DX001 (ip), vehicle: saline) was 122 % of control, the T/C (endpoint: mean survival time, dose: 5.0 mg/kg/injection, schedule: Q04DX003 (ip), vehicle: water) was 150 % of control and the T/C (endpoint: mean survival time, dose: 5.25 mg/kg/injection, schedule: Q01DX001 (ip), vehicle: carboxymethylcellulose (CMC)) was 176 % of control. The T/C (endpoint: mean survival time, dose: 5.25 mg/kg/injection, schedule: Q01DX004 (ip), vehicle: saline) was 152 % of control, the T/C (endpoint: mean survival time, dose: 5.25 mg/kg/injection, schedule: Q01DX005 (ip), vehicle: saline) was 165 % of control and the T/C (endpoint: mean survival time, dose: 7.0 mg/kg/injection, schedule: Q01DX003 (ip), vehicle: saline) was 150 % of control. The T/C (endpoint: mean survival time, dose: 7.0 mg/kg/injection, schedule: Q04DX003 (ip), vehicle: saline) was 152 % of control, the T/C (endpoint: mean survival time, dose: 8.3 mg/kg/injection, schedule: Q04DX003 (ip), vehicle: water) was 119 % of control and the T/C (endpoint: mean survival time, dose: 10.5 mg/kg/injection, schedule: Q01DX001 (ip), vehicle: carboxymethylcellulose (CMC)) was 114 % of control. For the same compound, the T/C (endpoint: mean survival time, dose: 12.0 mg/kg/injection, schedule: Q01DX001 (ip), vehicle: saline) was 112 % of control, the T/C (endpoint: median survival time, dose: 0.1 mg/kg/injection, schedule: Q01DX009 (ip), vehicle: saline) was 192 % of control and the T/C (endpoint: median survival time, dose: 0.1 mg/kg/injection, schedule: Q04DX003 (ip), vehicle: saline) was 108 % of control. The T/C (endpoint: median survival time, dose: 0.12 mg/kg/injection, schedule: Q01DX009 (ip), vehicle: Klucel (hydroxypropylcellulose) (HPC)) was 102 % of control, the T/C (endpoint: median survival time, dose: 0.2 mg/kg/injection, schedule: Q01DX009 (ip), vehicle: saline) was 113 % of control and the T/C (endpoint: median survival time, dose: 0.2 mg/kg/injection, schedule: Q04DX003 (ip), vehicle: saline) was 107 % of control. For the same compound, the T/C (endpoint: median survival time, dose: 0.25 mg/kg/injection, schedule: Q01DX009 (ip), vehicle: Klucel (hydroxypropylcellulose) (HPC)) was 102 % of control, the T/C (endpoint: median survival time, dose: 0.25 mg/kg/injection, schedule: Q01DX009 (ip), vehicle: saline) was 109 % of control and the T/C (endpoint: median survival time, dose: 0.25 mg/kg/injection, schedule: Q01DX009 (ip), vehicle: water) was 115 % of control. The T/C (endpoint: median survival time, dose: 0.4 mg/kg/injection, schedule: Q01DX001 (ip), vehicle: saline) was 113 % of control, the T/C (endpoint: median survival time, dose: 0.4 mg/kg/injection, schedule: Q01DX009 (ip), vehicle: saline) was 124 % of control and the T/C (endpoint: median survival time, dose: 0.4 mg/kg/injection, schedule: Q04DX003 (ip), vehicle: saline) was 109 % of control. For the same compound, the T/C (endpoint: median survival time, dose: 0.5 mg/kg/injection, schedule: Q01DX009 (ip), vehicle: Klucel (hydroxypropylcellulose) (HPC)) was 104 % of control, the T/C (endpoint: median survival time, dose: 0.5 mg/kg/injection, schedule: Q01DX009 (ip), vehicle: saline) was 118 % of control and the T/C (endpoint: median survival time, dose: 0.75 mg/kg/injection, schedule: Q01DX001 (ip), vehicle: saline) was 115 % of control. The T/C (endpoint: median survival time, dose: 0.8 mg/kg/injection, schedule: Q01DX001 (ip), vehicle: saline) was 112 % of control, the T/C (endpoint: median survival time, dose: 0.8 mg/kg/injection, schedule: Q04DX003 (ip), vehicle: saline) was 124 % of control and the T/C (endpoint: median survival time, dose: 1.0 mg/kg/injection, schedule: Q01DX009 (ip), vehicle: Klucel (hydroxypropylcellulose) (HPC)) was 116 % of control. For the same compound, the T/C (endpoint: median survival time, dose: 1.6 mg/kg/injection, schedule: Q01DX009 (ip), vehicle: saline) was 165 % of control, the T/C (endpoint: median survival time, dose: 1.8 mg/kg/injection, schedule: Q01DX001 (ip), vehicle: water) was 116 % of control and 102 % of control and 105 % of control and the T/C (endpoint: median survival time, dose: 2.4 mg/kg/injection, schedule: Q03DX003 (ip), vehicle: saline) was 118 % of control and 203 % of control. The T/C (endpoint: median survival time, dose: 3.2 mg/kg/injection, schedule: Q01DX009 (ip), vehicle: saline) was 96 % of control, the T/C (endpoint: median survival time, dose: 3.2 mg/kg/injection, schedule: Q04DX003 (ip), vehicle: saline) was 168 % of control and the T/C (endpoint: median survival time, dose: 3.6 mg/kg/injection, schedule: Q01DX001 (ip), vehicle: saline) was 155 % of control and 160 % of control. For the same compound, the T/C (endpoint: median survival time, dose: 4.0 mg/kg/injection, schedule: Q01DX009 (ip), vehicle: saline) was 97 % of control, the T/C (endpoint: median survival time, dose: 4.8 mg/kg/injection, schedule: Q01DX001 (ip), vehicle: saline) was 166 % of control and the T/C (endpoint: median survival time, dose: 4.8 mg/kg/injection, schedule: Q03DX003 (ip), vehicle: saline) was 190 % of control. For the same compound, the T/C (endpoint: median survival time, dose: 5.0 mg/kg/injection, schedule: Q01DX001 (ip), vehicle: water) was 113 % of control and 115 % of control, the T/C (endpoint: median survival time, dose: 5.4 mg/kg/injection, schedule: Q01DX001 (ip), vehicle: saline) was 166 % of control and the T/C (endpoint: median survival time, dose: 6.0 mg/kg/injection, schedule: Q01DX009 (ip), vehicle: clinical formulation) was 98 % of control. The T/C (endpoint: median survival time, dose: 6.4 mg/kg/injection, schedule: Q01DX001 (ip), vehicle: saline) was 156 % of control, the T/C (endpoint: median survival time, dose: 8.0 mg/kg/injection, schedule: Q01DX001 (ip), vehicle: saline) was 156 % of control and 172 % of control and the T/C (endpoint: median survival time, dose: 8.3 mg/kg/injection, schedule: Q01DX001 (ip), vehicle: water) was 123 % of control.
